Test results taken from patent US20260191783A1, “DRUG DELIVERY FORMULATIONS” (The Regents of the University of California, priority 2018, published 2026).
One block for each compound: values may come before it.

Tests used:
[1] = format: physicochemical
Protocol: Oxidized porous silicon microparticles were prepared using a similar method to those used for segesterone acetate melt casting described elsewhere (75% porosity, 800° C. oxidation). […] Once molten, the LNG-CHOL mixture was left to infiltrate the porous silica materials for 5 minutes before cooling to room temperature. The oxidized porous silicon material containing LNG-CHOL was then recovered and ground into microparticles using a mortar and pestle. The loaded oxidized porous silicon particles were then evaluated for their release kinetics in 1×PBS (pH 7.4) at 37° C. Approximately 2 mg of LNG-PSi were placed in a glass vial containing 3.5 mL of 1×PBS and placed in a 37° C. incubator on a moving platform to induce mild agitation of the solution. 3 mL of the PBS was removed every 24 hours and replaced with fresh solution. The extracted supernatant was then analyzed for LNG content by high performance liquid chromatography (HPLC).

[2] = In vitro dissolution / segesterone acetate release in 1x PBS; format: physicochemical; details: 1x PBS pH 7.4, 37° C., mild agitation, starting SEG 0.4 mg/mL
Protocol: Modulation of Segesterone Acetate Release Profile. Three main particle parameters were investigated as to their effect on the release of loaded SEG: particle oxidation temperature, drug loading, and particle porosity. Unless otherwise mentioned, the baseline particle formulation used was 55% porosity, oxidized at 800° C. and had segesterone acetate loading of 70% weight/weight. Drug release was modeled by in vitro dissolution in 1× phosphate buffered saline (pH 7.4) under mild agitation at 37° C. For all studies, starting segesterone acetate concentration was kept constant at 0.4 mg/mL based on the percent loading of the given formulation. […] Segesterone acetate concentrations were evaluated by HPLC with absorbance measurements at 254 nm.

[3] = Serum segesterone acetate by HPLC-MS/MS after subcutaneous injection; details: rat, 50 mg/kg SEG
[4] = molecular target: T1, androgen receptor (Homo sapiens, UniProt P10275); details: cited from earlier work
T1 sequence (P10275 1-920): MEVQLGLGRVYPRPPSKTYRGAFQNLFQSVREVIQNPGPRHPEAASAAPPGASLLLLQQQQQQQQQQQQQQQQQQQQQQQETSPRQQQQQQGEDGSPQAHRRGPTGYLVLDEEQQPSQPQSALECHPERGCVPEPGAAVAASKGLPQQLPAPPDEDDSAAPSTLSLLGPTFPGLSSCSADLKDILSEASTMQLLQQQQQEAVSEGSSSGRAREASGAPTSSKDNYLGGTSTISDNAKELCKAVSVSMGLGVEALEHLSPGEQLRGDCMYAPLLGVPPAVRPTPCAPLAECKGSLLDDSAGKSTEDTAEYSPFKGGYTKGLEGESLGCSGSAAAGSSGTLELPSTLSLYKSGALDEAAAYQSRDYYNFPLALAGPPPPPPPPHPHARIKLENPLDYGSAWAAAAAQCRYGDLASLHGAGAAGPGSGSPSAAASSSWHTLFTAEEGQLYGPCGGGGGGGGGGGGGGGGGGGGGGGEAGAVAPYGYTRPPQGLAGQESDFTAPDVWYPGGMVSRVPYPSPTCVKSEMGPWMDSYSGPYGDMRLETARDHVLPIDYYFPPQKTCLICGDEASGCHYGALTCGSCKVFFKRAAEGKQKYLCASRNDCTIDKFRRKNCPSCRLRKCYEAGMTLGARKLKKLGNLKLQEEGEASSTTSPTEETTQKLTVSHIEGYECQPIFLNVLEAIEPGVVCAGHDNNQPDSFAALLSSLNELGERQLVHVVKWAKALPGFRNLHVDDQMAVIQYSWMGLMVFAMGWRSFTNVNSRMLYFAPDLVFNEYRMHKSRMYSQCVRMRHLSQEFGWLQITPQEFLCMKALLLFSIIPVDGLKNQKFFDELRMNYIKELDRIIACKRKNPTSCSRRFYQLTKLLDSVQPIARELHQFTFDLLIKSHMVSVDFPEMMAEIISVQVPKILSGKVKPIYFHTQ

[5] = molecular target: T2, estrogen receptor (Homo sapiens, UniProt P03372); details: cited from earlier work
T2 sequence (P03372 1-595): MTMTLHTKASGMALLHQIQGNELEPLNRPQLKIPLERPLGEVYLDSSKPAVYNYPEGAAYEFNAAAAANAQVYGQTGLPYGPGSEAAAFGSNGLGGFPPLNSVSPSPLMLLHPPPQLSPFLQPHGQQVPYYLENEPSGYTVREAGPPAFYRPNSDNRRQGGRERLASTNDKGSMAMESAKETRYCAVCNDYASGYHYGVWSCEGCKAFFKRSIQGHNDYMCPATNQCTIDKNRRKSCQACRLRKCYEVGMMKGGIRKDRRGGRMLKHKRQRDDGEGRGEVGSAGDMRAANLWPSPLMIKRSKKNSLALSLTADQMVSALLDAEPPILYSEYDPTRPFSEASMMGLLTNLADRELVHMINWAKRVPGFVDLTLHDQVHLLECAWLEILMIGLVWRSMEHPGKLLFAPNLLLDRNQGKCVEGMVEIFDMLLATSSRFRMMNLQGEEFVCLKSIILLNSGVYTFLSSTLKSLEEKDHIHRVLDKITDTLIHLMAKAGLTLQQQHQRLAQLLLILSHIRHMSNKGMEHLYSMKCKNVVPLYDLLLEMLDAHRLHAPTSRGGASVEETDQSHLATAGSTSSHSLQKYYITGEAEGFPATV

Structure (SMILES): C#C[C@]1(OC(=O)CCC)CC[C@H]2[C@@H]3CCC4=CC(=O)CC[C@@H]4[C@H]3CC[C@@]21CC [Levonorgestrel Butanoate]
Tdegradeable (STA under nitrogen flow): 230 °C | Window [Tdegradeable − Tmelt] (difference between melting and degradation temperatures, STA under nitrogen flow): 26 °C

chemical alteration or degradation by the melt casting process [1]: not chemically altered or degraded | temperature at which the drug began to lose mass (oxygen atmosphere, heating rate 10° C.): approximately 233 °C
Structure (SMILES): C#C[C@]1(O)CC[C@H]2[C@@H]3CCC4=CC(=O)CC[C@@H]4[C@H]3CC[C@@]21CC [Levonorgestrel]

duration of segesterone acetate release / time to full clearance from the test chamber ([2]; listed as crystalline segesterone acetate controls): 40 days | duration of segesterone acetate release / time to full clearance from the test chamber ([2]; listed as pure segesterone acetate): 35 to 40 days | segesterone acetate detection in serum at terminal 6-month timepoint [3]: still detected
Structure (SMILES): C=C1C[C@H]2[C@@H]3CCC4=CC(=O)CC[C@@H]4[C@H]3CC[C@]2(C)[C@@]1(OC(C)=O)C(C)=O [segesterone acetate]
binding to the androgen receptor [4]: does not significantly bind | binding to the estrogen receptor [5]: does not significantly bind
